The values that follow come from patent US10301261B2, “Substituted indoles as modulators of ROR-gamma” (Vitae Pharmaceuticals, LLC, priority 2015, dated 2019).

Assay [1] concerns the target full-length RORγt in Jurkat cells (Homo sapiens (Human), UniProt P51449). As to the kind of experiment: RORγt 5×RORE Assay in Jurkat Cells (Assay 2). Particulars: RORγt 5×RORE Nanoluc reporter. Type of assay: cell-based. As to the method:
[formula] RORγt 5×RORE Assay in Jurkat Cells (Assay 2)
Compounds described herein were tested for RORγ inverse agonist activity in a cell-based, transcriptional activity assay. […] (Promega, Cat. # N1021) using KpnI and HindIII restriction sites. […] Tested compounds were added to the cells in the same media (final concentration of DMSO was 0.1% (v/v)), and the plates were incubated at 37° C./5% CO2 for 16-18 hrs. Luciferase activity in the conditioned supernatants was determined with NanoGlo® assay reagents (Promega, Cat.# N1130).

Assay [2] concerns the target recombinant RORγ Ligand Binding Domain (LBD) protein (Homo sapiens (Human), UniProt P51449). As to the kind of experiment: Radio-Ligand RORγ Binding Assay (Assay 1). The note with it: radio-ligand 25-hydroxy [26,27-3H]-cholesterol competition. As to the method: Radio-Ligand RORγ Binding Assay (Assay 1)
Compounds described herein were tested for ability to bind to RORγ in a cell-free competition assay with commercially available radio-ligand (RL), 25-hydroxy [26,27-^3H]-cholesterol (PerkinElmer, Cat. # NET674250UC), for a ligand binding site on a recombinant RORγ Ligand Binding Domain (LBD) protein expressed as a 6×His-Glutathione-S-Transferase (GST) fusion. […] The plate was shaken at 700 rpm for 20 min and incubated for 10 min at rt, after which 40 μL of poly-Lys YSi SPA beads (PerkinElmer, Cat. # RPNQ0010) were added to achieve 50 μg of the beads per well. The plate was incubated on an orbital shaker for 20 min and then for 10 min without agitation at rt. SPA signal for tritium beta radiation was registered on PerkinElmer Microbeta plate reader. […] The percent inhibition vs. concentration data were fit into a four-parameter model, and IC50 values were calculated from the fit as the concentrations corresponding to the inflection points on the dose-response curves. […]

recombinant RORγ Ligand Binding Domain (LBD) protein, sequence (P51449 269-508): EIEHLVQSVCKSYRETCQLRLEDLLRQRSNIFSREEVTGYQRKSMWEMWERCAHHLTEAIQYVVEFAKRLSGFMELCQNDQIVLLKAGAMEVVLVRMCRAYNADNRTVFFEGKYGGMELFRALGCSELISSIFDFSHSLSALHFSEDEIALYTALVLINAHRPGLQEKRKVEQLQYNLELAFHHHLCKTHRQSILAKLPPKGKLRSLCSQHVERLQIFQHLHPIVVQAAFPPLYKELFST
full-length RORγt in Jurkat cells, sequence (P51449 other isoform, or with tags, fused parts or gaps): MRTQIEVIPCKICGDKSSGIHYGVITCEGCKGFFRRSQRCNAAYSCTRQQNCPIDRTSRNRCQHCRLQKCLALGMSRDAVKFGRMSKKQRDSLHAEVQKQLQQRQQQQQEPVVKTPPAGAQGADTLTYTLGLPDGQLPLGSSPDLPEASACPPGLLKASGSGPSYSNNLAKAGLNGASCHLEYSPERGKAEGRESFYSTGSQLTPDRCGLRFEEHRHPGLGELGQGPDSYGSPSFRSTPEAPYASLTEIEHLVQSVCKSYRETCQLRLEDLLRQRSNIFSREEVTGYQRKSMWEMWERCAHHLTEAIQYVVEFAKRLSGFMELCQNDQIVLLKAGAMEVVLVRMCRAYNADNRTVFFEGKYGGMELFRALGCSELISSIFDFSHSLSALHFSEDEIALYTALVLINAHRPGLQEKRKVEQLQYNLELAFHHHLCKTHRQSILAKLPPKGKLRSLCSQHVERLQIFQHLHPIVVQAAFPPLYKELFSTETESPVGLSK

In assay [1], `CCn1c(CN2CCC(C(F)(F)F)CC2)cc2cc(C(=O)N[C@@H](CO)c3ccc(S(=O)(=O)CC)cn3)ccc21` [IN-11, (R)-1-ethyl-N-(1-(5-(ethylsulfonyl)pyridin-2-yl)-2-hydroxyethyl)-2-((4-(trifluoromethyl)piperidin-1-yl)methyl)-1H-indole-5-carboxamide] yielded an IC50 below 100 nM. Besides, the Ki in assay [2] was below 100 nM.
`CCS(=O)(=O)c1ccc(CNC(=O)c2ccc3c(c2)nc(O[C@H]2CC[C@@H](C(F)(F)F)CC2)n3CC(C)C)cc1` [BE-4.2, N-(4-(ethylsulfonyl)benzyl)-1-isobutyl-2-(((1s,4s)-4-(trifluoromethyl)cyclohexyl)oxy)-1H-benzo[d]imidazole-5-carboxamide] came in with an IC50 in assay [1] above 1000 nM. The Ki in assay [2] is below 100 nM.
On the same counts, the results for `CCS(=O)(=O)c1ccc(CNC(=O)c2ccc3c(c2)nc(Oc2ccc(C(F)(F)F)cc2)n3C2CC2)cc1` [BE-6, 1-cyclopropyl-N-(4-(ethylsulfonyl)benzyl)-2-(4-(trifluoromethyl)phenoxy)-1H-benzo[d]imidazole-5-carboxamide] are below 100 nM and below 100 nM.
The like results for “1-ethyl-N-((5-(ethylsulfonyl)pyridin-2-yl)methyl)-2-(((1s,4s)-4-(trifluoromethyl)cyclohexyl)methyl)-1H-indole-5-carboxamide [IN-15.2]” were, in that order, above 1000 nM and below 100 nM.
On the same counts, the results for `CCS(=O)(=O)c1ccc(CNC(=O)c2ccc3c(c2)nc(Cc2ccc(Cl)cn2)n3C2CC2)cc1` [BE-52, 2-((5-chloropyridin-2-yl)methyl)-1-cyclopropyl-N-(4-(ethylsulfonyl)benzyl)-1H-benzo[d]imidazole-5-carboxamide] are above 1000 nM and below 100 nM.
Consider `CCn1c(Cc2ccc(C(F)(F)F)cc2)cc2cc(C(=O)NCc3ccc(S(=O)(=O)CC)cc3)ccc21` [IN-1, 1-ethyl-N-(4-(ethylsulfonyl)benzyl)-2-(4-(trifluoromethyl)benzyl)-1H-indole-5-carboxamide], for which the IC50 in assay [1] was below 100 nM. Besides, the Ki in assay [2] was below 100 nM.
Take `CCS(=O)(=O)c1ccc([C@H](CO)NC(=O)c2ccc3c(c2)nc(OCc2ccc(C(F)(F)F)cc2)n3C2CC2)cc1` [BE-15, (R)-1-cyclopropyl-N-(1-(4-(ethylsulfonyl)phenyl)-2-hydroxyethyl)-2-((4-(trifluoromethyl)benzyl)oxy)-1H-benzo[d]imidazole-5-carboxamide]: the IC50 in assay [1] is below 100 nM. The Ki in assay [2] was below 100 nM.
Compound `CCS(=O)(=O)c1ccc(CNC(=O)c2ccc3c(c2)nc(C[C@H]2CC[C@H](OC)CC2)n3C2CC2)cc1` [BE-46.1, 1-cyclopropyl-N-(4-(ethylsulfonyl)benzyl)-2-(((1r,4r)-4-methoxycyclohexyl)methyl)-1H-benzo[d]imidazole-5-carboxamide] showed an IC50 in assay [1] of 100 to 1000 nM. The Ki in assay [2] is below 100 nM.
As for `CCS(=O)(=O)c1ccc([C@H](CO)NC(=O)c2ccc3c(c2)nc(Cc2ccc(OC(F)(F)F)cc2)n3C2CC2)cc1` [BE-47, (R)-1-cyclopropyl-N-(1-(4-(ethylsulfonyl)phenyl)-2-hydroxyethyl)-2-(4-(trifluoromethoxy)benzyl)-1H-benzo[d]imidazole-5-carboxamide], the IC50 in assay [1] was below 100 nM. The Ki in assay [2] was below 100 nM.
`CCS(=O)(=O)c1ccc([C@H](CO)NC(=O)c2ccc3c(c2)nc(CN2CCC(C(F)(F)F)CC2)n3C2CC2)cc1` [BE-54, (R)-1-cyclopropyl-N-(1-(4-(ethylsulfonyl)phenyl)-2-hydroxyethyl)-2-((4-(trifluoromethyl)piperidin-1-yl)methyl)-1H-benzo[d]imidazole-5-carboxamide] returned an IC50 in assay [1] below 100 nM. For the same compound, in assay [2], the Ki is below 100 nM.
In assay [1], `CCn1c(OCc2ccc(C(F)(F)F)cc2)nc2cc(C(=O)N[C@@H](CO)c3ccc(S(=O)(=O)CC)cc3)ccc21` [BE-14, (R)-1-ethyl-N-(1-(4-(ethylsulfonyl)phenyl)-2-hydroxyethyl)-2-((4-(trifluoromethyl)benzyl)oxy)-1H-benzo[d]imidazole-5-carboxamide] gave an IC50 below 100 nM. Moreover, the Ki in assay [2] is below 100 nM.
As for `CCn1c(C[C@H]2CC[C@H](C(F)(F)F)CC2)nc2cc(C(=O)NCc3ccc(S(=O)(=O)CC)cc3)ccc21` [BE-20, 1-ethyl-N-(4-(ethylsulfonyl)benzyl)-2-(((1r,4r)-4-(trifluoromethyl)cyclohexyl)methyl)-1H-benzo[d]imidazole-5-carboxamide], in assay [1], the IC50 was below 100 nM. The Ki in assay [2] is below 100 nM.
In assay [1], `CCn1c(Cc2ccc(C(F)(F)F)cc2)cc2cc(C(=O)N[C@@H](CO)c3ccc(S(=O)(=O)CC)cc3)ccc21` [IN-3, (R)-1-ethyl-N-(1-(4-(ethylsulfonyl)phenyl)-2-hydroxyethyl)-2-(4-(trifluoromethyl)benzyl)-1H-indole-5-carboxamide] registered an IC50 below 100 nM. In assay [2], the Ki was below 100 nM.
The compound `CCS(=O)(=O)c1ccc(CNC(=O)c2cnc3c(c2)nc(C[C@H]2CC[C@@H](C(F)(F)F)CC2)n3C2CC2)cc1` [AB-1.2, 3-cyclopropyl-N-(4-(ethylsulfonyl)benzyl)-2-(((1s,4s)-4-(trifluoromethyl)cyclohexyl)methyl)-3H-imidazo[4,5-b]pyridine-6-carboxamide] registered an IC50 in assay [1] above 1000 nM. Besides, in assay [2], the Ki was below 100 nM.
`CCn1c(Cc2ccc(C#N)cc2)cc2cc(C(=O)N[C@@H](CO)c3ccc(S(=O)(=O)CC)cn3)ccc21` [IN-21, (R)-2-(4-cyanobenzyl)-1-ethyl-N-(1-(5-(ethylsulfonyl)pyridin-2-yl)-2-hydroxyethyl)-1H-indole-5-carboxamide]: in assay [1], the IC50 is 100 to 1000 nM. The Ki in assay [2] is below 100 nM.
The like results for `CCn1c(Cc2ccc(C(F)(F)F)cc2)nc2cc(C(=O)NCc3ccc(S(=O)(=O)CC)cc3)ccc21` [BE-35, 1-ethyl-N-(4-(ethylsulfonyl)benzyl)-2-(4-(trifluoromethyl)benzyl)-1H-benzo[d]imidazole-5-carboxamide] were, in that order, below 100 nM and below 100 nM.
`CCn1c(Oc2ccc(OC(F)(F)F)cc2)nc2cc(C(=O)N[C@@H](CO)c3ccc(S(=O)(=O)CC)cc3)ccc21` [BE-9, (R)-1-ethyl-N-(1-(4-(ethylsulfonyl)phenyl)-2-hydroxyethyl)-2-(4-(trifluoromethoxy)phenoxy)-1H-benzo[d]imidazole-5-carboxamide] gave an IC50 in assay [1] below 100 nM. The Ki in assay [2] is below 100 nM.
Take `CCS(=O)(=O)c1ccc(CNC(=O)c2ccc3c(c2)nc(C[C@H]2CC[C@H](C(F)(F)F)CC2)n3CC(C)C)cc1` [BE-19.1, N-(4-(ethylsulfonyl)benzyl)-1-isobutyl-2-(((1r,4r)-4-(trifluoromethyl)cyclohexyl)methyl)-1H-benzo[d]imidazole-5-carboxamide]: in assay [1], the IC50 is below 100 nM. For the same compound, the Ki in assay [2] is below 100 nM.
`CCS(=O)(=O)c1ccc(CNC(=O)c2ccc3c(c2)nc(Cc2ccc(OC(F)F)cc2)n3C2CC2)cc1` [BE-48, 1-cyclopropyl-2-(4-(difluoromethoxy)benzyl)-N-(4-(ethylsulfonyl)benzyl)-1H-benzo[d]imidazole-5-carboxamide] displayed an IC50 in assay [1] below 100 nM. Besides, in assay [2], the Ki is below 100 nM.
